From patent US4963569A, “L-654,040, antibacterial agent” (Merck & Co., Inc., priority 1989, dated 1990)
Entries after “also recorded” stand apart in the source; their conditions may differ.

How the values were obtained:
[1] = system: Pasteurella multocida (4678); assay: In vivo efficacy in infected mice
[2] = system: Bordetella bronchiseptica (3771); assay: In vivo efficacy in infected mice
[3] = system: Pasteurella multocida (4678); assay: Combined therapy with erythromycin in infected mice; details: L-654,040 combined with erythromycin, intraperitoneal
Staph. aureus 2865 = assay: Agar dilution MIC, antagonist-free medium (Table II); details: Staphylococcus aureus 2865, agar dilution
E. coli DC2 4353 = assay: as above; details: E. coli permeability mutant
Solubility in water = assay type: physicochemical; details: solutions in water for dosing
[4] = 160 mg/kg×2 intraperitoneal, 0 and 6 hours after infection

In the case of C[C@H](CNC(=O)[C@H]1N=C(c2cccc(O)c2O)O[C@@H]1C)C(=O)N[C@@H]1CCCN(O)C1=O [L-654,040, 2-(2,3-dihydroxyphenyl)-4,5-dihydro-N-[3-[(1-hydroxy-2-oxo-3(R)-piperidinyl)amino]-2(R)-methyl-3-oxopropyl]-5R-methyl-4S-oxazolecarboxamide], the “statistical significance of prolongation of survival” value ([1]; 160 mg/kg×2 intraperitoneal) is reported as “statistically significant (0.025<p<0.05)”, the survival time [1, 4] is reported as “prolongation of survival time was observed” and the “survival time (summary)” value ([1]; intraperitoneal) is reported as “did prolong the survival time; also recorded: increases survival time”. For the same molecule, the “statistical significance of prolonged survival (summary)” value ([1]; intraperitoneal, two Pasteurella tests) was “statistically significant at one level in two Pasteurella tests”, the survival time [2, 4] was “prolongation of survival time was observed” and the “survival time (summary)” value ([2]; intraperitoneal) was “did prolong the survival time”. The “effectiveness of combined therapy vs erythromycin alone” value [3] was “slightly more effective than erythromycin alone”, the synergism with erythromycin [3] was “not to a degree considered to be synergistic” and the sensitivity of strain (Staph. aureus 2865) was “sensitive”. The sensitivity of strain (E. coli DC2 4353; agar dilution) was “sensitive”, the “relative activity, acetyl derivative vs parent compound” value (E. coli DC2 4353; from MIC) was “equal activity” and the “solubility (in words)” value (Solubility in water) was “limited solubility”.
